This assay deals with 485176-168-R4-J1-PDC complex spheroid growth. Put plainly: Anticancer human tumor 485176-168-R4-J1-PDC patient-derived pancreatic adenocarcinoma cell line growth inhibition [RAS]. Conditions: for viability, T/C: stronger effect = lower value. The gist of the method: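 Tumour cells grown as complex spheroids with HUVEC endothelial cells and mesenchymal stem cells, treated with RAS pathway inhibitor combinations. Each agent spans half-log steps from near clinical Cmax, or 10 microM where Cmax is unknown.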
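Further: spheroids exposed to compounds for seven days before readout.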
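Wherever viability, T/C is given: luminescence viability expressed relative to DMSO vehicle wells set as 100%.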

Consider `CC(=O)OC12COC1CC(O)C1(C)C(=O)C(O)C3=C(C)C(OC(=O)C(O)C(NC(=O)OC(C)(C)C)c4ccccc4)CC(O)(C(OC(=O)c4ccccc4)C21)C3(C)C` (configuration not stated) + CCn1c(-c2cccnc2C(C)OC)c2c3cc(ccc31)N1CCOC(CC(NC(=O)C(C(C)C)N(C)C(=O)C3(F)CCN(C(=O)C#CC(C)(C)N(C)C)CC3)C(=O)N3CCCC(N3)C(=O)OCC(C)(C)C2)C1, for which the IC50 (usually the midpoint of a concentration-inhibition curve) was < 31.6 nM (curve of first compound, second compound 0.000949 µM); < 31.6 nM (curve of first compound, second compound 0.003 µM); < 31.6 nM (curve of first compound, second compound 0.00949 µM); < 31.6 nM (curve of first compound, second compound 0.03 µM); < 31.6 nM (curve of first compound, second compound 0.0949 µM); < 31.6 nM (curve of first compound, second compound 0.3 µM). The viability, T/C (in general, the result in the treated group divided by that in the control group, in per cent) is, setting by setting: (second compound 0.000949 µM, first compound 0.0316 µM) 13.4%; (second compound 0.000949 µM, first compound 0.1 µM) 13.8%; (second compound 0.000949 µM, first compound 0.316 µM) 13.9%; (second compound 0.000949 µM, first compound 1 µM) 10.7%; (second compound 0.000949 µM, first compound 3.16 µM) 13.2%; (second compound 0.000949 µM, first compound 10 µM) 17.7%. For the same compound, the viability, T/C was 15.3% (second compound 0.003 µM, first compound 0.0316 µM); 12.7% (second compound 0.003 µM, first compound 0.1 µM); 12.2% (second compound 0.003 µM, first compound 0.316 µM); 14% (second compound 0.003 µM, first compound 1 µM); 14.4% (second compound 0.003 µM, first compound 3.16 µM); 16.7% (second compound 0.003 µM, first compound 10 µM). Further, the viability, T/C reads like this: (second compound 0.00949 µM, first compound 0.0316 µM) 15.4%; (second compound 0.00949 µM, first compound 0.1 µM) 14.8%; (second compound 0.00949 µM, first compound 0.316 µM) 12.1%; (second compound 0.00949 µM, first compound 1 µM) 11.9%; (second compound 0.00949 µM, first compound 3.16 µM) 15%; (second compound 0.00949 µM, first compound 10 µM) 17.6%. The viability, T/C is 14.9% (second compound 0.03 µM, first compound 0.0316 µM); 12.4% (second compound 0.03 µM, first compound 0.1 µM); 11.1% (second compound 0.03 µM, first compound 0.316 µM); 10.3% (second compound 0.03 µM, first compound 1 µM); 14.1% (second compound 0.03 µM, first compound 3.16 µM); 16.8% (second compound 0.03 µM, first compound 10 µM). The viability, T/C by setting is: (second compound 0.0949 µM, first compound 0.0316 µM) 11.2%; (second compound 0.0949 µM, first compound 0.1 µM) 10.4%; (second compound 0.0949 µM, first compound 0.316 µM) 8.86%; (second compound 0.0949 µM, first compound 1 µM) 9.58%; (second compound 0.0949 µM, first compound 3.16 µM) 13.1%; (second compound 0.0949 µM, first compound 10 µM) 16.4%. The viability, T/C is, setting by setting: (second compound 0.3 µM, first compound 0.0316 µM) 11.5%; (second compound 0.3 µM, first compound 0.1 µM) 9.61%; (second compound 0.3 µM, first compound 0.316 µM) 7.21%; (second compound 0.3 µM, first compound 1 µM) 9.28%; (second compound 0.3 µM, first compound 3.16 µM) 11.9%; (second compound 0.3 µM, first compound 10 µM) 16.4%.

Regarding `CCn1c(-c2cc(N3CCN(C)CC3)cnc2C(C)OC)c2c3cc(ccc31)-c1csc(n1)CC(NC(=O)C1CC1C)C(=O)N1CCCC(N1)C(=O)OCC(C)(C)C2` (configuration not stated), the viability, T/C is 102% [middle of 8 runs] (compound 0.000949 µM), 102% [middle of 8 runs] (compound 0.003 µM) and 92.2% [middle of 8 runs] (compound 0.00949 µM). Besides, the IC50 (compound alone, run of 05/20/2024) is > 300 nM.

`C=CC(=O)Nc1cc(Nc2nccc(-c3cn(C)c4ccccc34)n2)c(OC)cc1N(C)CCN(C)C`: the viability, T/C is 96.8% [middle of 4 runs] (compound 0.00316 µM); 97.1% [middle of 4 runs] (compound 0.01 µM); 96.3% [middle of 4 runs] (compound 0.0316 µM); 93.2% [middle of 4 runs] (compound 0.316 µM); 64.5% [middle of 4 runs] (compound 1 µM). For the setting “curve of compound”, the IC50 is > 1000 nM.

For the origin of these results see PubChem BioAssay AID2060906 (Molecular Pharmacology Branch, DTP, NCI, 2025).
